pEC50, pIC50: −log10 of the molar value.
Assays:
pre-oligodendrocytes = assay: Pre-oligodendrocyte proliferation, CyQUANT NF Cell Proliferation assay; format: cell-based, rat; conditions: for pIC50: exposure 72-96 h, 1 nM to 100 μM, cellular DNA content fluorescence
Procedure: Purified oligodendrocyte progenitor cell cultures were prepared as described (Othman et al., 2003, Glia 44:166-172). In brief, primary rat mixed glial cell cultures were isolated from whole brains of postnatal day (P) 1 rats, dissociated into single cells, and cultured into poly-D-lysine (PDL, Sigma-Aldrich, St. Louis, Mo.) coated T75 tissue culture flasks. Plating medium consisted of Dulbecco's modified Eagle's medium (DMEM, Invitrogen, Carlsbad, Calif.) supplemented with 10% fetal bovine serum (FBS; InVitrogen, Carlsbad, Calif.), 2 mM L-glutamine, […]. Tissue cultures were maintained at 37° C. in a humidified 5% CO2 incubator, and medium was exchanged every 3 days. Once confluent (after 7-9 days), microglia were separated by mechanical shaking of flasks on a rotary shaker for 60 min at 200 rpm and removed. After addition of fresh medium, the remaining cells were allowed to recover overnight before repeating the mechanical shaking for an additional 16 h at 200 rpm to isolate oligodendrocyte progenitor cells. To ensure purity of oligodendrocyte progenitor cell cultures, the isolated cells were transferred to a tissue culture dish, from which the loosely attached oligodendrocyte progenitor cells were detached by gentle shaking after 60 min, leaving behind attached microglia and astrocytes. Oligodendrocyte progenitor cells were plated onto PDL coated 96 well plates using an automated dispenser and allowed to adhere to the plates over the next 1-2 days. This procedure yielded 98% A2B5-positive (OPC marker), and 2% MBP-positive (mature OL marker) cells. GFAP-positive (astrocyte marker) or O22A-positive (microglia marker) cells could not be detected in cultures prepared in this manner.
Cells were exposed to various KATP channel stimulators, with concentrations of compounds ranging from 1 nM to 100 μM, for 72-96 h. Pre-oligodendrocytes were cultured in 384-well plates, at a concentration of 10,000 cells per well. Cultures were washed two times with DMEM to remove any residual serum and then the respective solutions of KATP channel activators were added daily in an incubation buffer of DMEM with 0.5% FBS+10 μg/ml biotin and N2 supplement. Cells were then placed at 37° C. in a humidified atmosphere containing 5% CO2. All concentrations were tested in triplicate and each study was repeated twice.
To evaluate cell proliferation in response to KATP channel stimulators, the CyQUANT® NF Cell Proliferation assay (Invitrogen, Carlsbad, Calif.) was used according to the manufacturer's instructions. This assay measured cellular DNA content as a direct index of cell proliferation. Since cellular DNA content is highly proportional to cell number, this is a very accurate way to assess cell proliferation specifically. At the end of drug exposure, medium was removed and a stock solution of the green-fluorescent CyQUANT GR dye (prepared according to manufacturer's instructions) was added. […] Fluorescence was measured using an Envision Multilabel reader (Perkin-Elmer; Excitation: 480 nm, Emission: 530 nm).

C57BL/6 mice = assay: Hypoxia-induced periventricular white matter injury in neonatal mice; format: in vivo, mouse; conditions: for myelin basic protein-labeling (myelination): vs vehicle
Procedure: The effect of diazoxide in hypoxia-induced periventricular white matter injury was assessed. C57BL/6 mice were reared in […] 10% O2 from P3 to P12. Pups were treated with daily injection of either diazoxide or vehicle, with at least eight animals in each treatment group. Mice were weighed every two days. At P12, brains were removed. Ventricle size and myelin basic protein (MBP) labeling were assessed. C57BL/6 mice were exposed to low or normal oxygen conditions from P3-P12 (Turner et al., 2003, Proc. Natl. Acad. Sci. USA 100:11718-11722). In brief, litters of pups (P3) were placed with the dam in a Plexiglas chamber, in which oxygen levels were maintained at 9.5±1.0%, O2 levels were continuously monitored using a Cameron Instrument (Ontario, Canada) dual channel oxygen monitor attached to O2 electrodes placed at each end of the chamber. Control animals were kept in room air (˜22%) outside the Plexiglas chamber. Animals were removed from the chamber daily for less than 15 min to allow for diazoxide (10 mg/kg i.p.) or vehicle administration, as well as observation of weight gain. Mice were euthanized at P12, brains were harvested and shock frozen in ice cold (−20° C.) 2-methylbutane and stored at −80° C. until assessment of ventricular size or MBP immunocytochemistry (see below). At least eight animals were studied in each treatment group. Ventricle size was determined as reported (Turner et al., 2003, Proc. Natl. Acad. Sci. USA 100:11718-11722). Animals were weighed, anesthetized, and decapitated. Brains were shock frozen in ice cold (−20° C.) 2-methylbutane and stored at −80° C. Coronal sections spanning the brain were cut in a cryostat at a thickness of 16 μm in a Zeiss cryostat. Sections were mounted onto glass slides and stained with Phoenix Blue (Thermo Scientific, Waltham, Mass.). […] Ventricular sizes were quantified using Sigma Scan Pro Image Analysis Version 5.0.0 (SPSS Inc., Chicago, Ill.). The ventricular area, outlined by the Phoenix Blue staining, was measured and numerically integrated across the thickness of the slice. […]

Compound: CC(O)(C(=O)Nc1ccc(S(=O)(=O)c2ccccc2)cc1)C(F)(F)F (stereo not drawn) [ZM26600, 3,3,3-trifluoro-2-hydroxy-2-methyl-N-(4-(phenylsulfonyl)phenyl) propanamide]
- pIC50 (pre-oligodendrocytes): 5.60

Compound: CCC(C)(C)/N=C(/NC#N)Nc1cccnc1 [P 1075, (E)-1-cyano-2-tert-pentyl-3-(pyridin-3-yl)guanidine]
- pIC50 (pre-oligodendrocytes; Rattus norvegicus): 7.00

Compound: CC1=NS(=O)(=O)c2cc(Cl)ccc2N1 [diazoxide, 7-chloro-3-methyl-4H-1,2,4-benzothiadiazine 1,1-dioxide]
- pEC50 (pre-oligodendrocytes; Rattus norvegicus, quoted in the cell toxicity study, read-out: observed EC50 value (pre-oligodendrocyte proliferation)): 8.00
- myelin basic protein-labeling (myelination) (C57BL/6 mice; chronic hypoxia P3-P12, 10 mg/kg i.p. daily): markedly improved
- ventricle size (ventriculomegaly) (C57BL/6 mice; hypoxia 10% O2 P3-P12, 10 mg/kg i.p. daily, p<0.05 ANOVA vs hypoxia-vehicle): not enlarged
- myelin basic protein-labeling (myelination) (C57BL/6 mice; room air, 10 mg/kg i.p. daily): More myelin basic protein-labeling

Compound: CC1(C)Oc2ccc(C#N)cc2[C@@H](N2CCCC2=O)[C@@H]1O [levcromakalim, (3S,4R)-3-hydroxy-2,2-dimethyl-4-(2-oxopyrrolidin-1-yl)chroman-6-carbonitrile]
- pIC50 (pre-oligodendrocytes; Rattus norvegicus): 5.60

Compound: CC(N/C(=N\C#N)Nc1ccncc1)C(C)(C)C (stereo not drawn) [pinacidil, (E)-1-(3,3-dimethylbutan-2-yl)-2-cyano-3-(pyridin-4-yl)guanidine]
- pIC50 (pre-oligodendrocytes; Rattus norvegicus): 5.00

Compound: CC(=O)N(O)[C@@H]1c2cc(C#N)ccc2OC(C)(C)[C@H]1O [Y26763, N-((3S,4R)-6-cyano-3-hydroxy-2,2-dimethylchroman-4-yl)-N-hydroxyacetamide]
- pIC50 (pre-oligodendrocytes; Rattus norvegicus): 6.70

— patent US20120100229A1, “Treatment and Prevention of White Matter Injury with KATP Channel Activators” (Yale University, priority 2009, published 2012)
